Reference: patent publication US20170143771A1, “COMPOSITION CONTAINING PSEUDOMONAS AERUGINOSA CULTURE SOLUTION EXTRACT HAVING ANTIBIOTIC AND ANTISEPTIC ACTIVITIES, AND USE THEREOF” (JOINT CENTER FOR BIOSCIENCES, priority 2014, published 2017)

Legend:
Bacillus cereus = assay: Preservative power test (challenge test), lotion dosage form; type: cell-based; settings: 0.5%
Procedure: (§1) In order to investigate the possibility of R1 as a preservative compared with methyl paraben, the preservative power test was conducted by measuring the sterilizing power of a toner dosage form and a lotion dosage form of R1 against gram positive pathogens (Staphylococcus aureus and Bacillus cereus) and gram negative pathogens (Pseudomonas aeruginosa and Escherichia coli). The preservative power test was conducted on the basis of the U.S. Cosmetics, Toiletry, and Fragrance Association (CTFA), and the basis is that a particular material has a possibility as a preservative if the particular material in dosage forms of a toner or lotion kills 99.9% of inoculated bacteria within 7 days.
(§2) R1 and methyl paraben, which were dissolved in methanol, each were added to the toner dosage form, so that the final concentration of each of R1 and the methyl paraben had 0% and 0.5%, and the S. aureus, B. cereus, P. aeruginosa, and C. albicans cultures each were inoculated in each container. The number of inoculated bacterial cells was 106-107 colony forming unit (CFU)/ml. While the bacteria-inoculated lotions were kept at room temperature, each lotion was diluted immediately, one day, three days, five days, and seven days after the inoculation of bacteria, and 200 μl of the lotions inoculated with S. aureus, B. cereus, and P. aeruginosa each were as plated on LB agar plate, and 200 μl of the lotion inoculated with C. albicans was plated on YPD agar plate. The death or not of bacteria was checked by calculating the number of cells and then comparing the calculated number with the number of initially inoculated bacteria. As control, only methanol was added to the lotion dosage form, and the bacteria culture was inoculated, followed by repeated tests.

Pseudomonas aeruginosa = assay: as above; type: cell-based; settings: 0.5%
Procedure: as §1, §2

Candida albicans = assay: as above; type: cell-based; settings: 0.5%
Procedure: as §1, §2

Staphylococcus aureus = assay: as above; type: cell-based; settings: 0.5%
Procedure: as §1, §2

[1] = DPPH scavenging activity test (antioxidative effect); type: biochemical; settings: concentration of 0.5% or more; 30 minutes, absorbance 517 nm; compared with ascorbic acid (AA)
Procedure: The color change of the DPPH radical is distinctive as it reacts with a reagent having excellent antioxidative ability. R1, ascorbic acid (AA), and methyl paraben (MTP) each were dissolved at different concentrations in methanol. The thus obtained samples (100 μl) each were dissolved at a concentration of 0.006% in methanol, and mixed with 100 μl of the DPPH radical solution to prepare a total volume of 200 μl, followed by reaction in a light-blocked space for 30 minutes. After completion of the reaction, the absorbance of each mixture was measured at 517 nm to determine antioxidative ability of each sample.

S. aureus = assay: Antibiotic activity of R1 fractions and rhamnolipids (clear zone on agar plate); type: cell-based, Staphylococcus aureus; settings: concluded from fraction activity and LC/MS peaks 1 and 2
Procedure: 1 mg of a mixture state of R1 extracted from a microorganism (P. aeruginosa) culture was dissolved in methanol, and then injected in the sep-Pak vac 1cc tc18 cartridge column. After that, the column was washed with solvent A, and solvent B as a development solvent was injected thereinto. Solvent B with different concentrations was injected into the column, and the fractions passing through the column were collected, and named fraction 1, fraction 2, fraction 3, fraction 4, fraction 5, and fraction 6. The different concentrations of solvent B injected to the column were 50%, 55%, 60%, 65%, 70%, and 75%.
Each of the obtained fractions was dried, and then dissolved at a concentration of 10 mg/ml in methanol. 20 μl of each of the fractions dissolved in methanol was dropped on an agar plate plated with the S. aureus culture, and cultured at 37° C. for 18 hours. After 18 hours, the clear zone generated on the agar plate was observed.

In the case of `COC(=O)c1ccc(O)cc1` [MTP, methyl paraben], the “survival rate of inoculated bacteria” value (Bacillus cereus; Day 0) is reported as 100%, the “survival rate of inoculated bacteria” value (Bacillus cereus; Day 1) is reported as 0.12% and the “survival rate of inoculated bacteria” value (Bacillus cereus; Day 3) is reported as 0.06%. The “survival rate of inoculated bacteria” value (Bacillus cereus; Day 5) was 0.02%, the “survival rate of inoculated bacteria” value (Bacillus cereus; Day 7) was 0.01% and the “survival rate of inoculated bacteria” value (Pseudomonas aeruginosa; Day 0) was 100%. For the same compound, the “survival rate of inoculated bacteria” value (Pseudomonas aeruginosa; Day 1) was 0%, the “survival rate of inoculated bacteria” value (Pseudomonas aeruginosa; Day 3) was 0% and the “survival rate of inoculated bacteria” value (Pseudomonas aeruginosa; Day 5) was 0%. For the same compound, the “survival rate of inoculated bacteria” value (Pseudomonas aeruginosa; Day 7) was 0%, the “survival rate of inoculated bacteria” value (Candida albicans; Day 0) was 100% and the “survival rate of inoculated bacteria” value (Candida albicans; Day 1) was 0%. The “survival rate of inoculated bacteria” value (Candida albicans; Day 3) was 0%, the “survival rate of inoculated bacteria” value (Candida albicans; Day 5) was 0% and the “survival rate of inoculated bacteria” value (Candida albicans; Day 7) was 0%. The “survival rate of inoculated bacteria” value (Staphylococcus aureus; Day 0) was 100%, the “survival rate of inoculated bacteria” value (Staphylococcus aureus; Day 1) was 0% and the “survival rate of inoculated bacteria” value (Staphylococcus aureus; Day 3) was 0%. The “survival rate of inoculated bacteria” value (Staphylococcus aureus; Day 5) was 0%, the “survival rate of inoculated bacteria” value (Staphylococcus aureus; Day 7) was 0% and the “antioxidative effect (DPPH scavenging activity)” value [1] was “significantly low antioxidative effect”.

For `CCCCCCCC(CC(=O)O)OC(=O)CC(CCCCCCC)O[C@@H]1O[C@@H](C)[C@H](O)[C@@H](O)[C@H]1O` (some centres unmarked) [Rha-C10-C10], the “active ingredient having antibacterial activity” value (S. aureus) was “active ingredients having antibacterial activity”.

For `CCCCCCCC(CC(=O)O)OC(=O)CC(CCCCCCC)OC1OC(C)C(O)C(O)C1OC1OC(C)C(O)C(O)C1O` (stereo not drawn) [Rha-Rha-C10-C10], the “active ingredient having antibacterial activity” value (S. aureus) was “active ingredients having antibacterial activity”.
